Data as given in ChEMBL document CHEMBL1135808, “A new type of mixed anhydride and its applications to the synthesis of 7-substituted 8-chloro-5,5-dioxoimidazo[1,2-b][1,4,2]benzodithiazines with in vitro antitumor activity” (2002).

Key:
UACC-257 [1] = assay: In vitro total growth inhibition against melanoma UACC-257 cell lines was reported.; format: functional; settings: Homo sapiens, read-out: Log TGI (converted)
UO-31 [2] = assay: In vitro growth inhibition against renal cancer UO-31 cell line was reported.; format: functional; settings: Homo sapiens
MDA-N = assay: In vitro total growth inhibition against breast cancer MDA-N cell lines was reported.; format: functional; settings: Homo sapiens, read-out: Log TGI (converted)
OVCAR-5 = assay: In vitro total growth inhibition against ovarian cancer OVCAR-5 cell lines was reported.; format: functional; settings: Homo sapiens, read-out: Log TGI (converted)
UO-31 [3] = assay: In vitro total growth inhibition against renal cancer UO-31 cell lines was reported.; format: functional; settings: Homo sapiens, read-out: Log TGI (converted)
NCI-H322M [4] = assay: In vitro growth inhibition against non-small-cell lung cancer […] cell line was reported.; format: functional; settings: Homo sapiens
CAKI-1 = assay: In vitro total growth inhibition against renal cancer CAKI-1cell lines was reported.; format: functional; settings: Homo sapiens, read-out: Log TGI (converted)
SK-MEL-2 [5] = assay: In vitro growth inhibition against melanoma SK-MEL-2 cell line was reported.; format: functional; settings: Homo sapiens
OVCAR-8 [6] = assay: In vitro total growth inhibition against ovarian cancer OVCAR-8 cell lines was reported.; format: functional; settings: Homo sapiens, read-out: Log TGI (converted)
TK-10 [7] = assay: Log of molar concentration leading to 50% cell death against renal cancer TK-10 cell line was reported; format: functional; settings: Homo sapiens, read-out: Log LC50 (the source's name) (converted)
SK-MEL-5 = assay: In vitro growth inhibition against melanoma SK-MEL-5 cell line was reported.; format: functional; settings: Homo sapiens
RXF 393 [8] = assay: Log of molar concentration leading to 50% cell death against renal cancer RXF 393 cell line was reported; format: functional; settings: Homo sapiens, read-out: Log LC50 (the source's name) (converted)
SR = assay: In vitro total growth inhibition against leukemia SR cell lines was reported.; format: functional; settings: Homo sapiens, read-out: Log TGI (converted)
MDA-MB-231 = assay: In vitro total growth inhibition against breast cancer MDA-MB-231/ATCC cell lines was reported.; format: functional; settings: Homo sapiens, read-out: Log TGI (converted)
SNB-75 [9] = assay: In vitro total growth inhibition against CNS cancer SNB-75 cell lines was reported.; format: functional; settings: Homo sapiens, read-out: Log TGI (converted)
OVCAR-8 [10] = assay: In vitro growth inhibition against ovarian cancer OVCAR-8 cell line was reported.; format: functional; settings: Homo sapiens
HCC 2998 = assay: Log of molar concentration leading to 50% cell death against colon cancer HCC2998 cell line was reported; format: functional; settings: Homo sapiens, read-out: Log LC50 (the source's name) (converted)
SF-295 = assay: Log of molar concentration leading to 50% cell death against CNS cancer SF-295 cell line was reported; format: functional; settings: Homo sapiens, read-out: Log LC50 (the source's name) (converted)
SF-268 = assay: In vitro growth inhibition against CNS cancer SF-268 cell line was reported.; format: functional; settings: Homo sapiens
HCT-15 [11] = assay: In vitro growth inhibition against colon cancer […] cell line was reported.; format: functional; settings: Homo sapiens
A498 [12] = assay: In vitro total growth inhibition against renal cancer A-498 cell lines was reported.; format: functional; settings: Homo sapiens, read-out: Log TGI (converted)
NCI-H46 [13] = assay: In vitro total growth inhibition against non-small-cell lung cancer […] cell lines was reported.; format: functional; settings: Homo sapiens, read-out: Log TGI (converted)
SNB-19 = assay: In vitro total growth inhibition against CNS cancer SNB-19 cell lines was reported.; format: functional; settings: Homo sapiens, read-out: Log TGI (converted)
MCF7 [14] = assay: In vitro total growth inhibition against breast cancer MCF 7 cell lines was reported.; format: functional; settings: Homo sapiens, read-out: Log TGI (converted)
SW-620 = assay: In vitro total growth inhibition against colon cancer SW-620 cell lines was reported.; format: functional; settings: Homo sapiens, read-out: Log TGI (converted)
NCI-H322M [15] = assay: In vitro total growth inhibition against non-small-cell lung cancer NCI-H322M cell lines was reported.; format: functional; settings: Homo sapiens, read-out: Log TGI (converted)
PC-3 [16] = assay: Log of molar concentration leading to 50% cell death against prostate cancer PC-3 cell line was reported; format: functional; settings: Homo sapiens, read-out: Log LC50 (the source's name) (converted)
BT-549 [17] = assay: In vitro total growth inhibition against breast cancer BT 549 cell line was reported.; format: functional; settings: Homo sapiens, read-out: Log TGI (converted)
MCF7 [18] = assay: In vitro growth inhibition against breast cancer MCF 7 cell line was reported.; format: functional; settings: Homo sapiens
UACC-257 [19] = assay: In vitro total growth inhibition against melanoma UACC-257 cell line was reported.; format: functional; settings: Homo sapiens
OVCAR-3 = assay: In vitro total growth inhibition against ovarian cancer OVCAR-3 cell lines was reported.; format: functional; settings: Homo sapiens, read-out: Log TGI (converted)
SNB-75 [20] = assay: In vitro growth inhibition against CNS cancer SNB-75 cell line was reported.; format: functional; settings: Homo sapiens
HCT-15 [21] = assay: In vitro total growth inhibition against colon cancer HCT-15 cell lines was reported.; format: functional; settings: Homo sapiens, read-out: Log TGI (converted)
LOX IMVI = assay: In vitro total growth inhibition against melanoma LOX IMVI cell lines was reported.; format: functional; settings: Homo sapiens, read-out: Log TGI (converted)
Hs-578T = assay: In vitro growth inhibition against breast cancer HS 578T cell line was reported.; format: functional; settings: Homo sapiens
PC-3 [22] = assay: In vitro total growth inhibition against prostate cancer PC-3 cell lines was reported.; format: functional; settings: Homo sapiens, read-out: Log TGI (converted)
HOP-92 = assay: In vitro total growth inhibition against non-small-cell lung cancer HOP-92 cell lines was reported.; settings: Homo sapiens, read-out: Log TGI (converted)
KM12 = assay: In vitro total growth inhibition against colon cancer KM12 cell lines was reported.; format: functional; settings: Homo sapiens, read-out: Log TGI (converted)
RXF 393 [23] = assay: In vitro total growth inhibition against renal cancer RXF 393 cell lines was reported.; format: functional; settings: Homo sapiens, read-out: Log TGI (converted)
HL-60 = assay: In vitro growth inhibition against leukemia HL-60(TB) cell line was reported.; format: functional; settings: Homo sapiens
NCI-H522 [24] = assay: In vitro total growth inhibition against non-small-cell lung cancer NCI-522 cell lines was reported.; format: functional; settings: Homo sapiens, read-out: Log TGI (converted)
NCI-H226 = assay: In vitro total growth inhibition against non-small-cell lung cancer NCI-H226 cell lines was reported.; format: functional; settings: Homo sapiens, read-out: Log TGI (converted)
A549 = assay: In vitro total growth inhibition against non-small-cell lung cancer A 549/ATCC cell lines was reported.; format: functional; settings: Homo sapiens, read-out: Log TGI (converted)
IGROV-1 [25] = assay: In vitro total growth inhibition against ovarian cancer IGROV1 cell lines was reported.; format: functional; settings: Homo sapiens, read-out: Log TGI (converted)
NCI/ADR-RES = assay: In vitro total growth inhibition against breast cancer NCI/ADR-RES cell lines was reported.; format: functional; settings: Homo sapiens, read-out: Log TGI (converted)
RPMI-8226 = assay: In vitro growth inhibition against leukemia […] cell line was reported.; format: functional; settings: Homo sapiens
SF-539 = assay: In vitro growth inhibition against CNS cancer SF-539 cell line was reported.; format: functional; settings: Homo sapiens
CCRF-CEM = assay: In vitro growth inhibition against leukemia CCRF-CEM cell line was reported.; format: functional; settings: Homo sapiens
OVCAR-4 = assay: In vitro total growth inhibition against ovarian cancer OVCAR-4 cell lines was reported.; format: functional; settings: Homo sapiens, read-out: Log TGI (converted)
BT-549 [26] = assay: In vitro growth inhibition against breast cancer BT 549 cell line was reported.; format: functional; settings: Homo sapiens
DU-145 = assay: In vitro growth inhibition against prostate cancer […] cell line was reported.; format: functional; settings: Homo sapiens
NCI-H522 [27] = assay: Log of molar concentration leading to 50% cell death against non-small-cell lung cancer NCI-522 cell line was reported; format: functional; settings: Homo sapiens, read-out: Log LC50 (the source's name) (converted)
MOLT-4 = assay: In vitro total growth inhibition against leukemia MOLT-4 cell lines was reported.; format: functional; settings: Homo sapiens, read-out: Log TGI (converted)
TK-10 [28] = assay: In vitro growth inhibition against renal cancer TK-10 cell line was reported.; format: functional; settings: Homo sapiens
SK-MEL-2 [29] = assay: Log of molar concentration leading to 50% cell death against melanoma SK-MEL-2 cell line was reported; format: functional; settings: Homo sapiens, read-out: Log LC50 (the source's name) (converted)
NCI-H46 [30] = assay: Log of molar concentration leading to 50% cell death against non-small-cell lung cancer […] cell line was reported; format: functional; settings: Homo sapiens, read-out: Log LC50 (the source's name) (converted)
A498 [31] = assay: In vitro growth inhibition against renal cancer A498 cell line was reported.; format: functional; settings: Homo sapiens
U-251 = assay: Log of molar concentration leading to 50% cell death against CNS cancer U251 cell line was reported; format: functional; settings: Homo sapiens, read-out: Log LC50 (the source's name) (converted)
786-0 = assay: In vitro growth inhibition against renal cancer […] cell line was reported.; format: functional; settings: Homo sapiens
SK-MEL-2 [32] = assay: In vitro total growth inhibition against melanoma SK-MEL-2 cell lines was reported.; format: functional; settings: Homo sapiens, read-out: Log TGI (converted)
IGROV-1 [33] = assay: Log of molar concentration leading to 50% cell death against ovarian cancer IGROV1 cell line was reported; format: functional; settings: Homo sapiens, read-out: Log LC50 (the source's name) (converted)

SMILES: O=C(Nc1cccc2nsnc12)c1cc2c(cc1Cl)Sc1nccn1S2(=O)=O
- TGI (UACC-257 [1]): 3.39 µM
- GI50 (UO-31 [2]): 2.09 µM
- TGI (MDA-N): 27.5 µM
- TGI (OVCAR-5): 83.2 µM
- TGI (UO-31 [3]): 4.37 µM
- GI50 (NCI-H322M [4]): 1.78 µM
- TGI (CAKI-1): 19.1 µM
- GI50 (SK-MEL-2 [5]): 10 µM
- TGI (OVCAR-8 [6]): 7.08 µM
- CC50 (TK-10 [7]): 50.1 µM
- GI50 (SK-MEL-5): 15.8 µM
- CC50 (RXF 393 [8]): 56.2 µM
- TGI (SR): 4.79 µM
- TGI (MDA-MB-231): 24.5 µM
- TGI (SNB-75 [9]): 26.9 µM
- GI50 (OVCAR-8 [10]): 2.34 µM
- CC50 (HCC 2998): 55 µM
- CC50 (SF-295): 55 µM
- GI50 (SF-268): 3.39 µM
- GI50 (HCT-15 [11]): 5.25 µM
- TGI (A498 [12]): 26.3 µM
- TGI (NCI-H46 [13]): 4.27 µM
- TGI (SNB-19): 24.5 µM
- TGI (MCF7 [14]): 3.39 µM
- TGI (SW-620): 46.8 µM
- TGI (NCI-H322M [15]): 3.24 µM
- CC50 (PC-3 [16]): 6.46 µM
- TGI (BT-549 [17]): 32.4 µM
- GI50 (MCF7 [18]): 1.74 µM
- GI50 (UACC-257 [19]): 1.82 µM
- TGI (OVCAR-3): 3.47 µM
- GI50 (SNB-75 [20]): 3.89 µM
- TGI (HCT-15 [21]): 21.4 µM
- TGI (LOX IMVI): 40.7 µM
- GI50 (Hs-578T): 4.17 µM
- TGI (PC-3 [22]): 3.55 µM
- TGI (HOP-92): 25.7 µM
- TGI (KM12): 3.89 µM
- TGI (RXF 393 [23]): 28.8 µM
- GI50 (HL-60): 1.86 µM
- TGI (NCI-H522 [24]): 22.4 µM
- TGI (NCI-H226): 33.1 µM
- TGI (A549): 38.9 µM
- TGI (IGROV-1 [25]): 23.4 µM
- TGI (NCI/ADR-RES): 38.9 µM
- GI50 (RPMI-8226): 2.09 µM
- GI50 (SF-539): 2.24 µM
- GI50 (CCRF-CEM): 3.24 µM
- TGI (OVCAR-4): 10.2 µM
- GI50 (BT-549 [26]): 12.3 µM
- GI50 (DU-145): 1.74 µM
- CC50 (NCI-H522 [27]): 89.1 µM
- TGI (MOLT-4): 9.33 µM
- GI50 (TK-10 [28]): 10.5 µM
- CC50 (SK-MEL-2 [29]): 64.6 µM
- CC50 (NCI-H46 [30]): 8.91 µM
- GI50 (A498 [31]): 13.5 µM
- CC50 (U-251): 44.7 µM
- GI50 (786-0): 16.6 µM
- TGI (SK-MEL-2 [32]): 25.7 µM
- CC50 (IGROV-1 [33]): 79.4 µM
